For 32 compounds, IC50 results are on record in patent US10828301B2, “2,4-pyrimidinediamine compounds and their uses” (Rigel Pharmaceuticals, Inc, priority 2002, dated 2020).

Assay [1] relates to cultured human mast cells (CHMC). Description: CHMC low cell density IgE activation: tryptase and LTC4 assays. In kind it is cell-based. The note with it: Homo sapiens, Mast cell, read-out: CHMC anti-IgE Tryptase. The procedure, abridged: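 Cultured human mast cells at low density (1000-1500 per well) rested 1 h at 37° C, then stimulated with anti-IgE for 30 min at 37° C. Supernatant tryptase measured with fluorogenic substrate (30 min, room temperature); LTC4 quantified by ELISA on diluted supernatant.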

The test system is the same in assay [2]. Description: CHMC low cell density ionomycin activation: tryptase assay. The note with it: Homo sapiens, Mast cell, read-out: CHMC Ionomycin Tryptase. In kind it is cell-based.
[3] abbreviates: Low Density CHMC, anti-IgE activation, tryptase readout.
The mark [4] stands for this setting: Low Density CHMC, ionomycin activation, tryptase readout.

A value given as a limit tells only on which side of the number the result lay.

Consider `Oc1cccc(Nc2nc(NCc3ccc4c(c3)OCCO4)ncc2F)c1` [Compound R945168, N2-(2,3-Dihydro-1,4-benzodioxin-6-ylmethyl)-5-fluoro-N4-(3-hydroxyphenyl)-2,4-pyrimidinediamine], for which the IC50 in assay [1] (setting [3]) was 10000 nM; in assay [2] (setting [4]), > 10000 nM.

For the compound `O=C1CCNC2=COc3ccc(Nc4nc(Nc5cccc(O)c5)ncc4F)cc3N12` [Compound R945237, 5-Fluoro-N2-(3-hydroxyphenyl)-N4-[1-oxo-1,2,3,6-tetrahydropyrimido[2,1-c][1,4]benzoxazin-9-yl]-2,4-pyrimidinediamine], the IC50 was 461 nM in assay [1] (setting [3]) and > 10000 nM in assay [2] (setting [4]).

Consider `Fc1cnc(Nc2ccc(OCc3ccccc3)c(C(F)(F)F)c2)nc1Nc1ccc(OCc2ccccc2)c(C(F)(F)F)c1` [Compound R950090, N2,N4-Bis(4-benzyloxy-3-trifluoromethylphenyl)-5-fluoro-2,4-pyrimidinediamine], for which the IC50 in assay [1] (setting [3]) and in assay [2] (setting [4]) was > 10000 nM each time.

With `N#Cc1cc(Nc2ncc(F)c(Nc3ccc(O)c(C#N)c3)n2)ccc1O` [Compound R950092, N2,N4-Bis(3-cyano-4-hydroxyphenyl)-5-fluoro-2,4-pyrimidinediamine], the IC50 in assay [1] (setting [3]) and in assay [2] (setting [4]) was > 10000 nM in each case.

For `Oc1ccc(Nc2ncc(F)c(Nc3ccc(O)c(C(F)(F)F)c3)n2)cc1C(F)(F)F` [Compound R950093, N2,N4-Bis(4-hydroxy-3-trifluoromethylphenyl)-5-fluoro-2,4-pyrimidinediamine], the IC50 in assay [1] (setting [3]) turned out to be 640 nM; in assay [2] (setting [4]) it was 5550 nM.

As for `CC(C)(C)OC(=O)Nc1cccc(Nc2ncc(F)c(Nc3cccc(NC(=O)OC(C)(C)C)c3)n2)c1` [Compound R950108, N2,N4-Bis[3-(tert-butoxycarbonylamino)phenyl]-5-fluoro-2,4-pyrimidinediamine], the results for the IC50 in assay [1] (setting [3]) and in assay [2] (setting [4]) were 2080 nM and > 10000 nM, respectively.

In the case of `CC(C)(C)OC(=O)Nc1ccc(Nc2ncc(F)c(Nc3ccc(NC(=O)OC(C)(C)C)cc3)n2)cc1` [Compound R950120, N2,N4-Bis[4-(tert-butoxycarbonylamino)phenyl]-5-fluoro-2,4-pyrimidinediamine], the IC50 in assay [1] (setting [3]) is 3000 nM; in assay [2] (setting [4]) it was > 10000 nM.

In the case of `Nc1cc(Nc2ccnc(Nc3ccc(Nc4ccccc4)c(N)c3)n2)ccc1Nc1ccccc1` [Compound R950123, N2,N4-Bis[3-amino-4-(N-phenylamino)-phenyl]-2,4-pyrimidinediamine], the IC50 was found to be 3250 nM in assay [1] (setting [3]) and 8450 nM in assay [2] (setting [4]).

Turning to `Nc1cc(Nc2ncc(F)c(Nc3ccc(Nc4ccccc4)c(N)c3)n2)ccc1Nc1ccccc1` [Compound R950125, N2,N4-Bis[3-amino-4-(N-phenylamino)-phenyl]-5-fluoro-2,4-pyrimidinediamine], the IC50 in assay [1] (setting [3]) is 1380 nM; in assay [2] (setting [4]) it was 6300 nM.

With `Cc1ccc(Nc2ncc(F)c(Nc3ccc(C)c(N)c3)n2)cc1N` [Compound R950129, N2,N4-Bis(3-amino-4-methylphenyl)-5-fluoro-2,4-pyrimidinediamine], the figures for the IC50 in assay [1] (setting [3]) and in assay [2] (setting [4]) were 665 nM and > 10000 nM, respectively.

Turning to `Nc1cc(Cl)cc(Nc2ccnc(Nc3cc(N)cc(Cl)c3)n2)c1` [Compound R950133, N2,N4-Bis(3-amino-5-chlorophenyl)-2,4-pyrimidinediamine], the IC50 in assay [1] (setting [3]) is 2200 nM; in assay [2] (setting [4]), > 10000 nM.

Consider `COC(=O)c1cc(N)cc(Nc2ncc(F)c(Nc3cc(N)cc(C(=O)OC)c3)n2)c1` [Compound R950134, N2,N4-Bis(3-amino-5-methoxycarbonylphenyl)-5-fluoro-2,4-pyrimidinediamine], for which the IC50 in assay [1] (setting [3]) was 1880 nM; in assay [2] (setting [4]) it was > 10000 nM.

As for `Nc1cc(Nc2ncc(F)c(Nc3ccc([N+](=O)[O-])c(N)c3)n2)ccc1[N+](=O)[O-]` [Compound R950135, N2,N4-Bis(3-amino-4-nitrophenyl)-5-fluoro-2,4-pyrimidinediamine], the IC50 in assay [1] is 850 nM; in assay [2], > 10000 nM.

For the compound `CCOc1ccc(Nc2ncc(F)c(Nc3ccc(OCC)c(N)c3)n2)cc1N` [Compound R950139, N2,N4-Bis(3-amino-4-ethoxyphenyl)-5-fluoro-2,4-pyrimidinediamine], the figures for the IC50 in assay [1] (setting [3]) and in assay [2] (setting [4]) were 1380 nM and > 10000 nM, respectively.

Consider `Nc1cc(Nc2ncc(F)c(Nc3cc(N)cc(C(F)(F)F)c3)n2)cc(C(F)(F)F)c1` [Compound R950140, N2,N4-Bis(3-amino-5-trifluoromethylphenyl)-5-fluoro-2,4-pyrimidinediamine], for which the IC50 was 2820 nM in assay [1] (setting [3]) and > 10000 nM in assay [2] (setting [4]).

`O=[N+]([O-])c1cc(Nc2ncc(F)c(Nc3ccc(F)c([N+](=O)[O-])c3)n2)ccc1F` [Compound R950148, N2,N4-Bis(4-fluoro-3-nitrophenyl)-5-fluoro-2,4-pyrimidinediamine]: the IC50 is 2280 nM in assay [1] and > 10000 nM in assay [2].

Take `O=[N+]([O-])c1cc(Nc2ncc(F)c(Nc3ccc(Cl)c([N+](=O)[O-])c3)n2)ccc1Cl` [Compound R950149, N2,N4-Bis(4-chloro-3-nitrophenyl)-5-fluoro-2,4-pyrimidinediamine]: the results for the IC50 in assay [1] and in assay [2] were 10000 nM and > 10000 nM, respectively.

Turning to `O=[N+]([O-])c1cc(Nc2ccnc(Nc3ccc(Cl)c([N+](=O)[O-])c3)n2)ccc1Cl` [Compound R950154, N2,N4-Bis(4-chloro-3-nitrophenyl)-2,4-pyrimidinediamine], the IC50 was 2080 nM in assay [1] and > 10000 nM in assay [2].

As to `Nc1cc(Nc2ncc(F)c(Nc3ccc(F)c(N)c3)n2)ccc1F` [Compound R950159, N2,N4-Bis(3-amino-4-fluorophenyl)-5-fluoro-2,4-pyrimidinediamine], the IC50 in assay [1] (setting [3]) is 610 nM; in assay [2] (setting [4]) it was > 10000 nM.

Consider `O=[N+]([O-])c1cccc(Nc2ncc(F)c(Nc3cccc([N+](=O)[O-])c3)n2)c1` [Compound R950160, N2,N4-Bis(3-nitrophenyl)-5-fluoro-2,4-pyrimidinediamine], for which the results for the IC50 in assay [1] and in assay [2] were 1000 nM and > 10000 nM, respectively.

For the compound `COC(=O)c1cc2cc(Nc3ncc(F)c(Nc4cccc(N)c4)n3)ccc2o1` [Compound R950162, N4-(3-Aminophenyl)-5-fluoro-N2-(2-methoxycarbonylbenzofurane-5-yl)-2,4-pyrimidinediamine], the IC50 is 434 nM in assay [1] (setting [3]) and > 10000 nM in assay [2] (setting [4]).

For the compound `Nc1cccc(Nc2nc(Nc3cccc(O)c3)ncc2F)c1` [Compound R950163, N4-(3-Aminophenyl)-5-fluoro-N2-(3-hydroxyphenyl)-2,4-pyrimidinediamine], the IC50 in assay [1] (setting [3]) was 874 nM; in assay [2] (setting [4]), > 10000 nM.

Turning to `CC(C)Oc1cccc(Nc2ncc(F)c(Nc3cccc(N)c3)n2)c1` [Compound R950164, N4-(3-Aminophenyl)-5-fluoro-N2-(3-isopropoxyphenyl)-2,4-pyrimidinediamine], the IC50 is 1890 nM in assay [1] (setting [3]) and > 10000 nM in assay [2] (setting [4]).

For the compound `CC(C)Oc1ccc(Nc2ncc(F)c(Nc3cccc(N)c3)n2)cc1` [Compound R950165, N4-(3-Aminophenyl)-5-fluoro-N2-(4-isopropoxyphenyl)-2,4-pyrimidinediamine], the IC50 in assay [1] (setting [3]) is 1290 nM; in assay [2] (setting [4]) it was > 10000 nM.

With `CC(C)Nc1cccc(Nc2ncc(F)c(Nc3cccc(NC(C)C)c3)n2)c1` [Compound R950166, N2,N4-Bis[3-(N-isopropyl)aminophenyl]-5-fluoro-2,4-pyrimidinediamine], the IC50 in assay [1] (setting [3]) is 1890 nM; in assay [2] (setting [4]), > 10000 nM.

Regarding `CC(C)(C)OC(=O)C=Nc1cccc(Nc2ncc(F)c(Nc3cccc(N=CC(=O)OC(C)(C)C)c3)n2)c1` [Compound R950177, N2,N4-Bis(3-tert-butoxycarbonylmethyleneaminophenyl)-5-fluoro-2,4-pyrimidinediamine], the IC50 in assay [1] (setting [3]) came out at 2360 nM; in assay [2] (setting [4]), 8430 nM.

For `CC(C)(C)OC(=O)C=Nc1cccc(Nc2ncc(F)c(Nc3cccc(N)c3)n2)c1` [Compound R950178, N4-(3-Aminophenyl)-N2-(3-tert-butoxycarbonylmethyleneaminophenyl)-5-fluoro-2,4-pyrimidinediamine], the values for the IC50 in assay [1] (setting [3]) and in assay [2] (setting [4]) were 688 nM and > 10000 nM, respectively.

As to `CC(C)(C)OC(=O)C=Nc1cccc(Nc2nc(Nc3cccc(N)c3)ncc2F)c1` [Compound R950179, N2-(3-Aminophenyl)-N4-(3-tert-butoxycarbonylmethyleneaminophenyl)-5-fluoro-2,4-pyrimidinediamine], the IC50 in assay [1] (setting [3]) is 955 nM; in assay [2] (setting [4]) it was > 10000 nM.

Regarding `CN(C)c1cccc(Nc2ncc(F)c(Nc3cccc(N(C)C)c3)n2)c1` [Compound R950182, N2,N4-Bis[3-(dimethylamino)phenyl]-5-fluoro-2,4-pyrimidinediamine], the results for the IC50 in assay [1] (setting [3]) and in assay [2] (setting [4]) were 627 nM and > 10000 nM, respectively.

Consider `CCOC(=O)C=Nc1cccc(Nc2nc(N(CC(=O)OCC)c3cccc(N=CC(=O)OCC)c3)ncc2F)c1` [Compound R950183, N2,N4-Bis(3-ethoxycarbonylmethyleneaminophenyl)-N2-(ethoxycarbonylmethyl)-5-fluoro-2,4-pyrimidinediamine], for which the figures for the IC50 in assay [1] (setting [3]) and in assay [2] (setting [4]) were 4800 nM and > 10000 nM, respectively.

Regarding `CCOC(=O)C=Nc1cccc(Nc2ncc(F)c(Nc3cccc(N=CC(=O)OCC)c3)n2)c1` [Compound R950184, N2,N4-Bis(3-ethoxycarbonylmethyleneaminophenyl)-5-fluoro-2,4-pyrimidinediamine], the IC50 is 2220 nM in assay [1] (setting [3]) and > 10000 nM in assay [2] (setting [4]).

As for `CCOC(=O)C=Nc1cccc(Nc2ncc(F)c(Nc3ccc4c(c3)OCCO4)n2)c1` [Compound R950186, N4-(3,4-Ethylenedioxyphenyl)-N2-(3-ethoxycarbonylmethyleneaminophenyl)-5-fluoro-2,4-pyrimidinediamine], the IC50 was 558 nM in assay [1] (setting [3]) and > 10000 nM in assay [2] (setting [4]).
